The nature of data set [1]: Dissolution of diclofenac, dissolution test first liquid (pH 1.2). The format is physicochemical. As for the experimental part: (§1) Specifically, The Japanese Pharmacopoeia dissolution test first solution (1,000 mL of a liquid prepared by dissolving 2.0 g of sodium chloride and 7.0 mL of hydrochloric acid in water, pH 1.2) and dissolution test second solution (50 mL of phosphate buffer solution, pH 6.8 (a liquid prepared by mixing water with a liquid, which had been prepared by dissolving 3.4 g of potassium dihydrogen phosphate and 3.55 g of anhydrous disodium hydrogen phosphate in water to give 1,000 mL, at the mixing ratio of 1:1, pH 6.8)) were used as the test liquids, and the test was performed at 37±0.5 degrees Celsius and at the rotational speed of 50 rpm.

Data set [2] can be described thus: Dissolution of diclofenac, dissolution test second liquid (pH 6.8). The format is physicochemical. The following applies: for Diclofenac concentration pH 6.8: 2 mg diclofenac, 37 degrees Celsius, 50 rpm. The procedure:
as §1

Molecules are shown by their SMILES.

Regarding `O=C(O)Cc1ccccc1Nc1c(Cl)cccc1Cl` [diclofenac bulk powder, diclofenac], the “dissolution of diclofenac, in words” value in data set [1] is “prompt elusion”; in data set [2] (dissolution test second liquid (pH 6.8)), “sustained release”. For the same molecule, the “Diclofenac concentration pH 6.8” value in data set [2] (collection time 0 min) was found to be 0 μg/mL; in data set [2] (collection time 10 min) it was 20.92 ± 0.66 μg/mL; in data set [2] (collection time 20 min) it was 19.83 ± 0.74 μg/mL; in data set [2] (collection time 30 min), 20.07 ± 0.59 μg/mL; in data set [2] (collection time 40 min) it was 19.97 ± 0.22 μg/mL; in data set [2] (collection time 60 min), 20.42 ± 0.46 μg/mL. Moreover, the “Diclofenac concentration pH 6.8” value in data set [2] (collection time 90 min) is given as 20.21 ± 0.54 μg/mL; in data set [2] (collection time 120 min), 20.45 ± 0.69 μg/mL.
